Tests used:
Assay type in all cases: in vivo
[1] = test system: human subjects/patients with pain following dental surgery; assay: Dental surgery pain study: categorical pain intensity difference (PID, SPID); settings: LOCF; for Hourly Pain Intensity Difference (PID) score, Mean / Hourly Pain Intensity Difference (PID) score, Median: ITT subjects, PID as numerical variable
[2] = test system: human subjects/patients with pain following dental surgery; assay: Dental surgery pain study: remedication (rescue medication); settings: ITT
Source text: (§1) For this randomized, double-blind, active-controlled and placebo-controlled, parallel-group study, human subjects were randomized into one of the following five treatment groups:
(§2) A positive control (T, Group 4) was used to determine the sensitivity of the clinical end points. A negative control (placebo, Group 5) was used to establish the frequency and magnitude of changes in clinical end points that may occur in the absence of an active treatment. A single oral dose of study medication was administered when the subject experienced moderate to severe pain following the surgical extraction of three or four third molars. At least one of the molars was required to be mandibular bony impacted.
The subject was then given a rescue medication and discontinued from study. The subject was encouraged to wait at least until Hour 2 after administration of the study medication before using rescue medication. Subjects remedicating earlier than Hour 1 were not included in the analysis for efficacy. Subjects not remedicating during the eight hours of evaluation received a diary card and asked to record the time of remedication after they left the clinic.
Time to remedication (or rescue medication) was analyzed using the Kaplan-Meier estimate to compute the survival distribution function. The distribution was compared among groups using the Log Rank Test. A subject was considered censored at eight hours if remedication had not occurred. Pairwise comparisons were made using the LIFETEST methodology. Hochberg's procedure was used to control the family-wise type 1 error. Time to Onset of Meaningful Relief (determined by the stopwatch) was similarly analyzed. […] In all the above analyses baseline pain intensity could be used as a stratification factor. […] The sample size was estimated from historical data and from practical considerations rather than from calculation of expected measured differences.

[3] = test system: human subjects/patients with pain following dental surgery; assay: Dental surgery pain study: global evaluations; settings: ITT
Source text: as §1, §2
At the end of eight hours, or at the termination of hourly observations if sooner than eight hours, a global assessment was made by the subject and the observer in response to the question, “How do you rate the pain relief?” with response choices of excellent, very good, good, fair or poor. Assessment of adverse events continued for at least one hour following rescue medication. Subjects not completing at least the Hour 1 observation period were considered not evaluable for efficacy and were replaced.

In the case of COc1cccc([C@@]2(O)CCCC[C@@H]2CN(C)C)c1.Cl (racemic) [tramadol, (1RS,2RS)-2[(dimethylamino)-methyl]-1-(3-methoxyphenyl)-cyclohexanol HCL], the “Hourly Pain Intensity Difference (PID) score, Mean” value ([1]; Hour 0.5) is reported as −0.22, the “Hourly Pain Intensity Difference (PID) score, Median” value ([1]; Hour 0.5) is reported as 0 and the “Hourly Pain Intensity Difference (PID) score, Mean” value ([1]; Hour 1) is reported as −0.30. For the same compound, the “Hourly Pain Intensity Difference (PID) score, Median” value ([1]; Hour 1) was 0, the “Hourly Pain Intensity Difference (PID) score, Mean” value ([1]; Hour 2) was −0.06 and the “Hourly Pain Intensity Difference (PID) score, Median” value ([1]; Hour 2) was 0. For the same compound, the “Hourly Pain Intensity Difference (PID) score, Mean” value ([1]; Hour 3) was −0.06, the “Hourly Pain Intensity Difference (PID) score, Median” value ([1]; Hour 3) was 0 and the “Hourly Pain Intensity Difference (PID) score, Mean” value ([1]; Hour 4) was 0.06. The “Hourly Pain Intensity Difference (PID) score, Median” value ([1]; Hour 4) was 0, the “Hourly Pain Intensity Difference (PID) score, Mean” value ([1]; Hour 5) was 0.00 and the “Hourly Pain Intensity Difference (PID) score, Median” value ([1]; Hour 5) was 0. For the same compound, the “Hourly Pain Intensity Difference (PID) score, Mean” value ([1]; Hour 6) was 0.04, the “Hourly Pain Intensity Difference (PID) score, Median” value ([1]; Hour 6) was 0 and the “Hourly Pain Intensity Difference (PID) score, Mean” value ([1]; Hour 7) was −0.02. The “Hourly Pain Intensity Difference (PID) score, Median” value ([1]; Hour 7) was 0, the “Hourly Pain Intensity Difference (PID) score, Mean” value ([1]; Hour 8) was 0.02 and the “Hourly Pain Intensity Difference (PID) score, Median” value ([1]; Hour 8) was 0. The “SPID up to 4 Hours, Mean” value ([1]; ITT, single oral dose) was −0.58, the “SPID up to 4 Hours, Median” value ([1]; ITT, single oral dose) was 0 and the “SPID up to 6 Hours, Mean” value ([1]; ITT, single oral dose) was −0.54. The “SPID up to 6 Hours, Median” value ([1]; ITT, single oral dose) was 0, the “SPID up to 8 Hours, Mean” value ([1]; ITT, single oral dose) was −0.54 and the “SPID up to 8 Hours, Median” value ([1]; ITT, single oral dose) was 0. For the same compound, the “Time to Remedication up to 8 Hours, Median” value ([2]; Kaplan-Meier) was 2.48 h, the “Time to Remedication up to 24 Hours, Median” value ([2]; Kaplan-Meier) was 2.48 h and the “Percent of Subject who take Remedication up to 8 hours, No” value ([2]; first section of Table 9) was 15 (30.0%) n (%). For the same compound, the “Percent of Subject who take Remedication up to 8 hours, Yes” value ([2]; first section of Table 9) was 35 (70.0%) n (%), the “Percent of Subject who take Remedication up to 8 hours, No” value ([2]; second section of Table 9) was 8 (16.0%) n (%) and the “Percent of Subject who take Remedication up to 8 hours, Yes” value ([2]; second section of Table 9) was 42 (84.0%) n (%). For the same compound, the “Number of Subjects taken Rescue Medication” value ([2]; up to 8 Hours) was 35 subjects, the “Number of Subjects taken Rescue Medication” value ([2]; up to 24 Hours) was 42 subjects and the “Global Evaluation, Observer Evaluation: Excellent” value [3] was 2 (4.0%) n (%). For the same compound, the “Global Evaluation, Observer Evaluation: Fair” value [3] was 13 (26.0%) n (%), the “Global Evaluation, Observer Evaluation: Good” value [3] was 5 (10.0%) n (%) and the “Global Evaluation, Observer Evaluation: Poor” value [3] was 25 (50.0%) n (%). For the same compound, the “Global Evaluation, Observer Evaluation: Very Good” value [3] was 5 (10.0%) n (%), the “Global Evaluation, Subject Evaluation: Excellent” value [3] was 1 (2.0%) n (%) and the “Global Evaluation, Subject Evaluation: Fair” value [3] was 13 (26.0%) n (%). For the same compound, the “Global Evaluation, Subject Evaluation: Good” value [3] was 4 (8.0%) n (%), the “Global Evaluation, Subject Evaluation: Poor” value [3] was 26 (52.0%) n (%) and the “Global Evaluation, Subject Evaluation: Very Good” value [3] was 6 (12.0%) n (%).
